Measurements reported in patent US20220265817A1, “THERAPEUTIC COMPOSITIONS AND METHODS FOR TREATING HEPATITIS B” (priority 2017, published 2022).

Legend:
[1] = system: HBsAg secretion in HepG2.2.15 cells; assay: HepG2.2.15 cell culture system, HBsAg quantitation by CLIA, MacSynergy II; type: cell-based, human hepatoblastoma HepG2 cells; details: for Additive % Inhibition versus negative control: Trial 3, n = 4, SIRNA-NP μM: 0.0025, 0.00079, 0.00025, 7.9E−05, 2.5E−05, 0
Experimental: In vitro combination studies were conducted using the method of Prichard and Shipman (Prichard M N, and Shipman C Jr., Antiviral Research, 1990, 14 (4-5), 181-205; and Prichard M N, et. al., MacSynergy II). The HepG2.2.15 cell culture system is a cell line derived from human hepatoblastoma HepG2 cells that have been stably transfected with the adw2-subtype HBV genome as previously explained in Sells et al. (Proc. Natl. Acad. Sci. U. S. A, 1987. Vol 84:1005-1009). HepG2.2.15 cells secrete Dane-like viral particles, produce HBV DNA, and also produce the viral proteins, hepatitis B e antigen (HBeAg) and hepatitis B surface antigen (HBsAg).
To test the compound combinations, HepG2.2.15 (30,000 cells/well) were plated in 96 well tissue-culture treated microtiter plates in RPMI+L-Glutamine medium supplemented with 1% penicillin-streptomycin, 20 μg/mL geneticin (G418), 10% fetal bovine serum, and incubated in a humidified incubator at 37° C. and 5% CO2 overnight. […] […] The microtiter cell plates were incubated for a duration of 6 days in a humidified incubator at 37° C. and 5% CO2.
(§1) Untreated positive control samples (0.5% DMSO in media) were included on each plate in multiple wells. Following a 6 day-incubation, media was removed from treated cells for use in an HBsAg chemiluminescence immunoassay (CLIA) (Autobio Diagnostics, Cat No. CL0310-2). An HBsAg standard curve was generated to verify that the levels of HBsAg quantification were within the detection limits of the assay. The remaining inhibitor-treated cells were assessed for cytotoxicity by determination of the intracellular adenosine triphosphate (ATP) using a Cell-Titer Glo reagent (Promega) as per manufacturers instructions and by microscopic analysis of the cells throughout the duration of inhibitor treatment. Cell viability was calculated as a percentage of the untreated positive control wells.
The plates were read using an EnVision multimode plate reader (PerkinElmer Model 2104). […] The RLU data from the single compound treated cells were analyzed using XL-Fit module in Microsoft Excel to determine EC50 values using a 4-parameter curve fitting algorithm.

HepG2.2.15 cells = assay: HepG2.2.15 cytotoxicity (intracellular ATP, Cell-Titer Glo; microscopy); type: cell-based, human hepatoblastoma HepG2 cells; details: Trial 3, SIRNA-NP μM: 0.0025, 0.00079, 0.00025, 7.9E−05, 2.5E−05, 0
Experimental: as §1

hepatitis B virus (HBV) [2] = assay: Mouse model of HBV (AAV1.2 tail vein injection), serum HBsAg enzyme immunoassay; type: in vivo, C57/B16 mice; details: Compound 20 3.0 mg/kg oral twice daily Days 0-28, HBV siRNA (LNP) 0.3 mg/kg IV Day 0, n=5 (n=4 vehicle + siRNA)
Experimental: This viral vector contains a 1.2-fold overlength copy of the HBV genome and expresses HBV surface antigen (HBsAg) amongst other HBV products. Serum HBsAg expression in mice was monitored using an enzyme immunoassay. Animals were sorted (randomized) into groups based on serum HBsAg levels such that a) all animals were confirmed to express HBsAg and b) HBsAg group means were similar to each other prior to initiation of treatments.
Animals were treated with Compound 20 as follows: Starting on Day 0, a 3.0 mg/kg dosage of Compound 20 was administered orally to animals on a twice-daily frequency for a total of 56 doses between Days 0 and 28. Compound 20 was dissolved in a co-solvent formation for administration. Negative control animals were administered either the co-solvent formulation alone, or were not treated with any test article. Animals were treated with lipid nanoparticle (LNP)-encapsulated HBV-targeting siRNAs as follows: On Day 0, an amount of test article equivalent to 0.3 mg/kg siRNA was administered intravenously. The HBsAg expression levels for each treatment were compared against the Day 0 (pre-dose) values for that group.
The effect of these treatments was determined by collecting blood on Days 0 (pre-treatment), 7, 14, and 28 and analyzing it for serum HBsAg content.

hepatitis B virus (HBV) [3] = assay: Mouse model of HBV (pAAV/HBV1.2 hydrodynamic injection), serum HBsAg enzyme immunoassay; type: in vivo, C3H/HeN mice; details: HBV siRNA 1 mg/kg IV Days 0, 7, 14, poly(I:C) 20 μg HDI Day 0, mean ± SEM
Description: A mouse model of hepatitis B virus (HBV) was used to assess the anti-HBV effects of an immune stimulant and HBV-targeting siRNAs, both as independent treatments and in combination with each other.
This plasmid carries a 1.2-fold overlength copy of a HBV genome and expresses HBV surface antigen (HBsAg) amongst other HBV products. Serum HBsAg expression in mice was monitored using an enzyme immunoassay. Animals were sorted (randomized) into groups based on serum HBsAg levels such that a) all animals were confirmed to express HBsAg and b) HBsAg group means were similar to each other prior to initiation of treatments.
Animals were treated with immune stimulant as follows: On Day 0, 20 micrograms of high molecular weight polyinosinic:polycytidylic acid (poly(I:C)) was administered via HDI. Animals were treated with lipid nanoparticle (LNP)-encapsulated HBV-targeting siRNAs as follows: On each of Days 0, 7 & 14, an amount of test article equivalent to 1 mg/kg siRNA was administered intravenously. A negative control group was included as the HBsAg expression level is not completely stable in this mouse model of HBV; the absolute concentration of serum HBsAg generally declines over time in individual animals.
The effect of the treatments was determined by collecting a small amount of blood on Days 0 (pre-treatment), 3, 7, 14 & 21 and analyzing it for serum HBsAg content. Samples were diluted as appropriate to generate values within the assay range of quantitation where possible. Individual values falling below the lower limit of quantitation (LLOQ) were set as one-half the LLOQ.

COCCCOc1cc2c(cc1OC)-c1cc(=O)c(C(=O)O)cn1[C@H](C(C)C)C2 [Compound 5]
EC50 ([1]; HBsAg by CLIA, trial by row: r8 1, r9 2, r10 3, read-out: Compound 5 EC50): 2 nM | Additive % Inhibition versus negative control ([1]; Compound 5 0.0001 μM): 69.99% | Additive % Inhibition versus negative control ([1]; Compound 5 0.000316 μM): 82.39% | Additive % Inhibition versus negative control ([1]; Compound 5 0.001 μM): 89.01% | Additive % Inhibition versus negative control ([1]; Compound 5 0.00316 μM): 90.26% | Additive % Inhibition versus negative control ([1]; Compound 5 0.1 μM): 86.26% | Additive % Inhibition versus negative control ([1]; Compound 5 1.0E−05 μM): 46.36% | Additive % Inhibition versus negative control ([1]; Compound 5 1.00E−06 μM): 22.68% | Additive % Inhibition versus negative control ([1]; Compound 5 3.16E−06 μM): 34.18% | Additive % Inhibition versus negative control ([1]; Compound 5 3.17E−05 μM): 56.34% | Avg % Cell Viability vs control (HepG2.2.15 cells; Compound 5 0.0001 μM): 128% | Avg % Cell Viability vs control (HepG2.2.15 cells; Compound 5 0.000316 μM): 131% | Avg % Cell Viability vs control (HepG2.2.15 cells; Compound 5 0.001 μM): 141% | Avg % Cell Viability vs control (HepG2.2.15 cells; Compound 5 0.00316 μM): 127% | Avg % Cell Viability vs control (HepG2.2.15 cells; Compound 5 0.1 μM): 99% | Avg % Cell Viability vs control (HepG2.2.15 cells; Compound 5 1.0E−05 μM): 140% | Avg % Cell Viability vs control (HepG2.2.15 cells; Compound 5 1.00E−06 μM): 131% | Avg % Cell Viability vs control (HepG2.2.15 cells; Compound 5 3.16E−06 μM): 127% | Avg % Cell Viability vs control (HepG2.2.15 cells; Compound 5 3.17E−05 μM): 131%

COCCCOc1cc2c(cc1OC)-c1cc(=O)c(C(=O)O)cn1[C@H](C(C)C)C2 [Compound 20]
serum HBsAg as percentage of pre-treatment baseline at Day 0 (mean ± SEM) (hepatitis B virus (HBV) [2]; D 7): 7 ± 1% | serum HBsAg as percentage of pre-treatment baseline at Day 0 (mean ± SEM) (hepatitis B virus (HBV) [2]; D 14): 8 ± 2% | serum HBsAg as percentage of pre-treatment baseline at Day 0 (mean ± SEM) (hepatitis B virus (HBV) [2]; D 21): 7 ± 2% | serum HBsAg as percentage of pre-treatment baseline at Day 0 (mean ± SEM) (hepatitis B virus (HBV) [2]; D 28): 8 ± 2%

polyinosinic:polycytidylic acid [Poly(I:C)]
Serum HBsAg, % of individual pre-treatment baseline (Day 0) (hepatitis B virus (HBV) [3]; Day 3, n=4 or 5): 6.1 ± 1.1% | Serum HBsAg, % of individual pre-treatment baseline (Day 0) (hepatitis B virus (HBV) [3]; Day 7): 3.5 ± 1.1% | Serum HBsAg, % of individual pre-treatment baseline (Day 0) (hepatitis B virus (HBV) [3]; Day 14): 3.9 ± 1.4% | Serum HBsAg, % of individual pre-treatment baseline (Day 0) (hepatitis B virus (HBV) [3]; Day 21): 4.7 ± 2.3%
